Assay results reported in patent US6737383B1, “Herbicidal oxadiazolidines” (priority 1999, dated 2004).

What was measured:
bamyardgrass = assay: Test B flood test barnyardgrass; type: in vivo, Echinochloa crus-galli
How it was run: (§1)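 Each value is a visual injury score relative to controls, with 10 meaning complete control and 0 no effect. Evaluation took place twelve to sixteen days after the 2-leaf-stage plants were treated and kept in the greenhouse.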

rice = assay: Test B flood test rice; type: in vivo, Oryza sativa
How it was run: as §1

blackgrass = assay: Test B pre/postemergence blackgrass; type: in vivo, Alopecurus myosuroides
How it was run: (§2)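 Response is a visual 0-to-10 score relative to untreated plants, where 0 means no effect and 10 means complete control, taken twelve to sixteen days after application. Treatments went onto soil at planting and onto foliage of 1- to 4-leaf plants, using a surfactant-containing non-phytotoxic solvent.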

morningglory = assay: Test B pre/postemergence morningglory; type: in vivo, Ipomoea hederacea; conditions: for Morningglory plant response rating: scale of 0 to 10 where 0 is no effect and 10 is complete control
How it was run: as §2

wheat = assay: Test B pre/postemergence wheat; type: in vivo, Triticum aestivum; conditions: for Wheat plant response rating: scale of 0 to 10 where 0 is no effect and 10 is complete control
How it was run: as §2

smallflower flatsedge = assay: Test B flood test smallflower flatsedge; type: in vivo, Cyperus difformis
How it was run: as §1

duck salad = assay: Test B flood test duck salad; type: in vivo, Heteranthera limosa
How it was run: as §1

surinam grass = assay: Test B pre/postemergence surinam grass; type: in vivo, Brachiaria decumbens
How it was run: as §2

purple nutsedge = assay: Test B pre/postemergence purple nutsedge; type: in vivo, Cyperus rotundus; conditions: for Nutsedge plant response rating: scale of 0 to 10 where 0 is no effect and 10 is complete control
How it was run: as §2

crabgrass = assay: Test B pre/postemergence crabgrass; type: in vivo, Digitaria sanguinalis; conditions: for Crabgrass plant response rating: scale of 0 to 10 where 0 is no effect and 10 is complete control
How it was run: as §2

velvetleaf = assay: Test B pre/postemergence velvetleaf; type: in vivo, Abutilon theophrasti; conditions: for Velvetleaf plant response rating: scale of 0 to 10 where 0 is no effect and 10 is complete control
How it was run: as §2

corn = assay: Test B pre/postemergence corn; type: in vivo, Zea mays; conditions: for Corn plant response rating: scale of 0 to 10 where 0 is no effect and 10 is complete control
How it was run: as §2

cocklebur = assay: Test B pre/postemergence cocklebur; type: in vivo, Xanthium strumarium; conditions: for Cocklebur plant response rating: scale of 0 to 10 where 0 is no effect and 10 is complete control
How it was run: as §2

wild oat = assay: Test B pre/postemergence wild oat; type: in vivo, Avena fatua; conditions: for Wild oats plant response rating: scale of 0 to 10 where 0 is no effect and 10 is complete control
How it was run: as §2

giant foxtail = assay: Test B pre/postemergence giant foxtail; type: in vivo, Setaria faberii; conditions: for Giant foxtail plant response rating: scale of 0 to 10 where 0 is no effect and 10 is complete control
How it was run: as §2

bedstraw = assay: Test B pre/postemergence bedstraw; type: in vivo, Galium aparine; conditions: Preemergence; for Bedstraw plant response rating: scale of 0 to 10 where 0 is no effect and 10 is complete control
How it was run: as §2

[1] = Postemergence (flood test), Rate 125 g/ha, scale 0 to 10, 0 is no effect, 10 is complete control
[2] = Rate 62 g/ha, Postemergence (flood test species), scale of 0 to 10 where 0 is no effect and 10 is complete control
[3] = Rate 62 g/ha, flood test species, Pre-emergence, visual evaluation after twelve to sixteen days
[4] = Rate 125 g/ha, Pre-emergence, flood test species, scale 0 to 10 where 0 is no effect and 10 is complete control
[5] = Rate 250 g/ha, Pre-emergence, flood-test species, scale 0 to 10, 0 is no effect, 10 is complete control
[6] = Rate 500 g/ha, listed under Postemergence (flood test species), scale 0 to 10, 0 no effect, 10 complete control
[7] = Rate 500 g/ha, Pre-emergence, flood test species, scale 0 to 10 (0 no effect, 10 complete control)
[8] = Postemergence, Rate 125 g/ha, scale 0 to 10, 0 is no effect, 10 is complete control
[9] = Preemergence, Rate 62 g/ha, scale 0 to 10 (0 no effect, 10 complete control)
[10] = Preemergence, Rate 250 g/ha, scale of 0 to 10 where 0 is no effect and 10 is complete control
[11] = Preemergence, Rate 500 g/ha, scale of 0 to 10 where 0 is no effect and 10 is complete control
[12] = Rate 62 g/ha, Postemergence, scale of 0 to 10 where 0 is no effect and 10 is complete control
[13] = Rate 250 g/ha, Postemergence, scale of 0 to 10 where 0 is no effect and 10 is complete control
[14] = Rate 500 g/ha, Postemergence, scale 0 to 10, 0 no effect, 10 complete control

CC(C)N(C(=O)n1oc(=O)n(C2CCC2)c1=O)c1ccc(F)cc1 [Compound 350]
3: Plant response rating, Barnyardgrass (bamyardgrass; Rate 250 g/ha, Postemergence (flood test species), scale of 0 to 10 where 0 is no effect and 10 is complete control) | Morningglory plant response rating (morningglory; Rate 62 g/ha, Postemergence) | Wheat plant response rating (wheat; Preemergence, Rate 500 g/ha) | Plant response rating, Ducksalad (duck salad; [6]) | Plant response rating, Cocklebur (cocklebur; [14]) | Wild oats plant response rating (0 to 10 scale) (wild oat; Preemergence, Rate 125 g/ha)
9: Plant response rating, Morningglory (morningglory; [14]) | Plant response rating, Giant foxtail (giant foxtail; [14])
5: Plant response rating, Barnyardgrass (bamyardgrass; [6]) | Blackgrass plant response rating (0 to 10 scale) (blackgrass; Preemergence, Rate 125 g/ha) | Wild oats plant response rating (wild oat; Preemergence, Rate 250 g/ha) | Plant response rating, Wild oats (wild oat; [14]) | Giant foxtail plant response rating (giant foxtail; Rate 62 g/ha, Postemergence)
7: Plant response rating, Blackgrass (blackgrass; [13]) | Plant response rating, Blackgrass (blackgrass; [14]) | Plant response rating, Crabgrass (crabgrass; [14]) | Corn plant response rating (corn; Preemergence, Rate 500 g/ha) | Wild oats plant response rating (wild oat; Preemergence, Rate 500 g/ha)
2: Morningglory plant response rating (morningglory; Preemergence, Rate 500 g/ha) | Wheat plant response rating (wheat; Preemergence, Rate 250 g/ha) | Plant response rating, Wheat (wheat; [14]) | Plant response rating, S. Flatsedge (smallflower flatsedge; [1]) | Plant response rating, Ducksalad (duck salad; [1]) | B. signalgrass plant response rating (surinam grass; [10]) | Plant response rating, Velvetleaf (velvetleaf; [9]) | Velvetleaf plant response rating (0 to 10 scale) (velvetleaf; Preemergence, Rate 125 g/ha)
4: Plant response rating, Blackgrass (blackgrass; [8]) | Plant response rating, Blackgrass (blackgrass; [9]) | Blackgrass plant response rating (blackgrass; [12]) | B. signalgrass plant response rating (surinam grass; [11]) | Plant response rating, B. signalgrass (surinam grass; [14]) | Velvetleaf plant response rating (velvetleaf; Preemergence, Rate 250 g/ha)
0: Plant response rating, Barnyardgrass (bamyardgrass; [1]) | Barnyardgrass plant response rating (bamyardgrass; [2]) | Plant response rating, Barnyardgrass (0 to 10 scale, 0 is no effect, 10 is complete control) (bamyardgrass; [3]) | Barnyardgrass plant response rating (bamyardgrass; [4]) | Barnyardgrass plant response rating (bamyardgrass; [5]) | Barnyardgrass plant response rating (bamyardgrass; [7]) | Plant response rating, Rice (rice; [1]) | Rice plant response rating (rice; [2]) | Plant response rating, Rice (0 to 10 scale, 0 is no effect, 10 is complete control) (rice; [3]) | Rice plant response rating (rice; [4]) | Rice plant response rating (rice; [5]) | Plant response rating, Rice (rice; [6]) | Rice plant response rating (rice; [7]) | Plant response rating, Morningglory (morningglory; [9]) | Morningglory plant response rating (0 to 10 scale) (morningglory; Preemergence, Rate 125 g/ha) | Morningglory plant response rating (morningglory; Preemergence, Rate 250 g/ha) | Plant response rating, Wheat (wheat; [8]) | Plant response rating, Wheat (wheat; [9]) | Wheat plant response rating (0 to 10 scale) (wheat; Preemergence, Rate 125 g/ha) | Wheat plant response rating (wheat; Rate 62 g/ha, Postemergence) | S. Flatsedge plant response rating (smallflower flatsedge; [2]) | Plant response rating, S. Flatsedge (0 to 10 scale, 0 is no effect, 10 is complete control) (smallflower flatsedge; [3]) | S. Flatsedge plant response rating (smallflower flatsedge; [4]) | S. Flatsedge plant response rating (smallflower flatsedge; [5]) | S. Flatsedge plant response rating (smallflower flatsedge; [7]) | Ducksalad plant response rating (duck salad; [2]) | Plant response rating, Ducksalad (0 to 10 scale, 0 is no effect, 10 is complete control) (duck salad; [3]) | Ducksalad plant response rating (duck salad; [4]) | Ducksalad plant response rating (duck salad; [5]) | Ducksalad plant response rating (duck salad; [7]) | Plant response rating, B. signalgrass (surinam grass; [8]) | Plant response rating, B. signalgrass (surinam grass; [9]) | B. signalgrass plant response rating (0 to 10 scale, 0 is no effect, 10 is complete control) (surinam grass; Preemergence, Rate 125 g/ha) | B. signalgrass plant response rating (surinam grass; [12]) | Plant response rating, B. signalgrass (surinam grass; [13]) | Plant response rating, Nutsedge (purple nutsedge; [8]) | Nutsedge plant response rating (0 to 10 scale) (purple nutsedge; Preemergence, Rate 125 g/ha) | Nutsedge plant response rating (purple nutsedge; Preemergence, Rate 250 g/ha) | Nutsedge plant response rating (purple nutsedge; Rate 62 g/ha, Postemergence) | Plant response rating, Nutsedge (purple nutsedge; [14]) | Plant response rating, Velvetleaf (velvetleaf; [8]) | Velvetleaf plant response rating (velvetleaf; Rate 62 g/ha, Postemergence) | Plant response rating, Corn (corn; [8]) | Plant response rating, Corn (corn; [9]) | Corn plant response rating (0 to 10 scale) (corn; Preemergence, Rate 125 g/ha) | Corn plant response rating (corn; Preemergence, Rate 250 g/ha) | Corn plant response rating (corn; Rate 62 g/ha, Postemergence) | Plant response rating, Corn (corn; [14]) | Plant response rating, Cocklebur (cocklebur; [8]) | Plant response rating, Cocklebur (cocklebur; [9]) | Cocklebur plant response rating (0 to 10 scale) (cocklebur; Preemergence, Rate 125 g/ha) | Cocklebur plant response rating (cocklebur; Preemergence, Rate 250 g/ha) | Cocklebur plant response rating (cocklebur; Preemergence, Rate 500 g/ha) | Cocklebur plant response rating (cocklebur; Rate 62 g/ha, Postemergence) | Plant response rating, Wild oats (wild oat; [8]) | Plant response rating, Wild oats (wild oat; [9]) | Wild oats plant response rating (wild oat; Rate 62 g/ha, Postemergence)
8: Blackgrass plant response rating (blackgrass; [10]) | Blackgrass plant response rating (blackgrass; [11]) | Plant response rating, S. Flatsedge (smallflower flatsedge; [6]) | Plant response rating, Crabgrass (crabgrass; [9]) | Crabgrass plant response rating (0 to 10 scale) (crabgrass; Preemergence, Rate 125 g/ha) | Plant response rating, Giant foxtail (giant foxtail; [8])
10: Nutsedge plant response rating (purple nutsedge; Preemergence, Rate 500 g/ha) | Crabgrass plant response rating (crabgrass; Preemergence, Rate 250 g/ha) | Crabgrass plant response rating (crabgrass; Preemergence, Rate 500 g/ha) | Plant response rating, Giant foxtail (giant foxtail; [9]) | Giant foxtail plant response rating (0 to 10 scale) (giant foxtail; Preemergence, Rate 125 g/ha) | Giant foxtail plant response rating (giant foxtail; Preemergence, Rate 250 g/ha) | Giant foxtail plant response rating (giant foxtail; Preemergence, Rate 500 g/ha) | Plant response rating, Bedstraw (bedstraw; Rate 62 g/ha, scale 0 to 10 (0 no effect, 10 complete control)) | Bedstraw plant response rating (0 to 10 scale) (bedstraw; Rate 125 g/ha) | Bedstraw plant response rating (bedstraw; Rate 250 g/ha) | Bedstraw plant response rating (bedstraw; Rate 500 g/ha)
6: Plant response rating, Morningglory (morningglory; [8]) | Velvetleaf plant response rating (velvetleaf; Preemergence, Rate 500 g/ha) | Plant response rating, Velvetleaf (velvetleaf; [14])
1: Plant response rating, Crabgrass (crabgrass; [8]) | Crabgrass plant response rating (crabgrass; Rate 62 g/ha, Postemergence)
